These results are taken from patent US20090093420A1, “PROCESSES FOR THE PREPARATION OF AZITHROMYCIN” (WOCKHARDT LIMITED, priority 2006, published 2009).

A value given as a limit tells only on which side of the number the result lay.

A short description of data set [1]: stability study of anhydrous azithromycin, normal storage at 25±2° C. at 60±5% relative humidity. It is filed as physicochemical.
The nature of data set [2]: accelerated stability study of anhydrous azithromycin, storage at 40±2° C. at 75±5% relative humidity. It is filed as physicochemical.
Where [3] appears, read: after 12 months of storage at 25±2° C. at 60±5% relative humidity.
[4] abbreviates: after 3 months of storage at 40±2° C. at 75±5% relative humidity.

For `CCC1OC(=O)C(C)C(O[C@H]2C[C@@](C)(OC)[C@@H](O)C(C)O2)C(C)[C@@H](OC2OC(C)CC(N(C)C)[C@H]2O)[C@@](C)(O)C[C@@H](C)CN(C)[C@H](C)[C@@H](O)[C@]1(C)O` (stereo partly drawn) [anhydrous azithromycin, (2R,3S,4R,5R,5R,10R,11R,12S,13S,14R)-13-[(2,6-dideoxy-3-C-methyl-3-O-methyl-a-L-ribo-hexopyranosyl)oxy]-2-ethyl-3,4,10-trihydroxy-3,5,6,8,10,12,14-heptamethyl-11-[[3,4,6-trideoxy-3-(dimethylamino)-b-D-xylo-hexopyranosyl]oxy]-1-oxa-6-azacyclopentadecan-15-one], the “moisture content after storage” value in data set [1] (setting [3]) and in data set [2] (setting [4]) was ≤ 0.6% throughout. Besides, the “purity by HPLC after storage” value in data set [1] (setting [3]) was “more than 99%”; in data set [2] (setting [4]), “more than 98%”. The “time for which the form is stable” value was “more than 18 months” in data set [1] (normal stability studies) and “more than 3 months” in data set [2] (accelerated stability studies). The “change in the related substance content on storage” value in data set [1] (stored at 25±2° C. at 60±5% relative humidity) and in data set [2] (stored at 40±2° C. at 75±5% relative humidity) was “no change” each time.
